Source: US20210340130A1, “Compositions and methods for treating attention deficit disorders” (priority 2016, published 2021)

Experiments:
[1] = system: Male Sprague-Dawley rats; assay: Spontaneous locomotor activity (LMA) and rearing in rats; type: in vivo
Experimental: Behavioral tests of locomotor activity were conducted to determine the effects of exemplary low impact ampakines CX717 and CX1739 on normal, and amphetamine-stimulated activity in animal behavioral models. […] Male Sprague-Dawley rats (175-200 g; Charles River Laboratories) were given ad libitum food and water and maintained on a 12:12 hr light: dark cycle with lights on at 6:00 a.m. Each of ten test cages (standard polycarbonate animal cage; 26 cm×48 cm×20 cm; W×L×H) were surrounded by two photo beam arrays, placed to detect locomotor activity with a lower array and rearing behavior with an upper array. Locomotor and rearing activity were continuously monitored and recorded by computer for all ten test cages (Photo beam Activity System, San Diego Instruments, San Diego, Calif.). The test period was chosen as the 1st few hours of the dark period of the light: dark cycle. Approximately 15 min before the start of the dark cycle, the rats were removed from the housing facility, transported to the testing room and injected with CX717, CX1739 or vehicle and placed into photo beam activity cages. Immediately after all rats were injected the room lights were turned off and spontaneous activity data were collected for the next four hours. CX717 and CX1739 groups (0.1 to 10 mg/kg) were compared to the vehicle group.

[2] = target: cytosolic testosterone receptor (Homo sapiens, UniProt P10275); assay: Radioligand binding, testosterone receptor; conditions: read-out: inhibition of binding of a reference ligand
Chain of cytosolic testosterone receptor (P10275 whole entry): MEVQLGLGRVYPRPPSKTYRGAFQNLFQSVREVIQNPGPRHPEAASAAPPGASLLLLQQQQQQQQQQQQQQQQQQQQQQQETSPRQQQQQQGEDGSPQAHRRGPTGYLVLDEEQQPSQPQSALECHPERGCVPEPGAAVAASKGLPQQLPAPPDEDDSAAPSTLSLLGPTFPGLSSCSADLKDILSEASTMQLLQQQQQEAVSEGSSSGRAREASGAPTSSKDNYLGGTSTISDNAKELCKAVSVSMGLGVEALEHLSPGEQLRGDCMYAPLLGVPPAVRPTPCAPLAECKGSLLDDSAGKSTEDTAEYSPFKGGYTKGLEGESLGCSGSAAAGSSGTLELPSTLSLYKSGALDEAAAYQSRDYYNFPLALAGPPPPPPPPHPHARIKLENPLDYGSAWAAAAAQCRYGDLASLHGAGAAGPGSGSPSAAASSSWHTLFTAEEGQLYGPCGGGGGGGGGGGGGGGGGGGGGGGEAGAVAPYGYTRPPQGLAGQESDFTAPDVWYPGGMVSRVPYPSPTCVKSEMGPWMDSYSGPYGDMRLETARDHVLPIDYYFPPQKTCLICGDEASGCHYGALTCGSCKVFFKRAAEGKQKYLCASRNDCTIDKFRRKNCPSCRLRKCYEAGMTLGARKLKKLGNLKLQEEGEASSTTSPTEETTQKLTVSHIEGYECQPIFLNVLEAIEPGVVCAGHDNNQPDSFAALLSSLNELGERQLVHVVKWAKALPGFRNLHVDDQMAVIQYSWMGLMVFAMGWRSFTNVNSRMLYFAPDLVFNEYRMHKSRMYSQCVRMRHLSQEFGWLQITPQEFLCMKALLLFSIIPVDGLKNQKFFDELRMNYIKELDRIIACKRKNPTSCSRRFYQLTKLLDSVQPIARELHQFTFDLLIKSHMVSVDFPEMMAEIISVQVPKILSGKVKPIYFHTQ

| SMILES | spontaneous rearing ([1]; 10 mg/kg vs. vehicle, p<0.01) | pharmacodynamics of the effect on rearing behavior ([1]; 10 mpk, 1, 2, 3 and 4 hours post treatment) | spontaneous locomotor activity ([1]; first hour following ip administration, ANOVA=0.45) | inhibition at 100 µM [2] [%] |
| --- | --- | --- | --- | --- |
| O=C(c1ccc2nonc2c1)N1CCOCC1 [CX717, 1-(benzofurazan-5-ylcarbonyl)morpholine] | significant decrease | prolonged action | no effect |  |
| CN(C(=O)c1ccc2nonc2c1)C1CCOCC1 [CX1739, N-Methyl-N-tetrahydro-2H-pyran-4-yl-[2,1,3]-benzoxadiazole-5-carboxamide] |  |  |  | 64 |
